From PubChem BioAssay AID1259407 (Chemical Carcinogenesis Research Information System (CCRIS), 2018)
Calls of active or inactive are those of the source. How the calls were made is not given here.

Tested on: CCRIS mutagenicity, Ames/micronucleus/aberration tests
Assay: CCRIS mutagenicity studies
[1] = Test System: AMES SALMONELLA TYPHIMURIUM, Strain/Indicator: TA98, Metabolic Activation: NONE, Method: PREINCUBATION
[2] = Test System: AMES SALMONELLA TYPHIMURIUM, Strain/Indicator: TA98, Metabolic Activation: NONE, Method: STANDARD PLATE
[3] = Test System: AMES SALMONELLA TYPHIMURIUM, Strain/Indicator: TA100, Metabolic Activation: NONE, Method: STANDARD PLATE
[4] = Test System: AMES SALMONELLA TYPHIMURIUM, Strain/Indicator: TA98, Metabolic Activation: S-9, Method: STANDARD PLATE
[5] = Test System: AMES SALMONELLA TYPHIMURIUM, Strain/Indicator: TA100, Metabolic Activation: S-9, Method: STANDARD PLATE

SMILES: [N-]=[N+]=NC[C@@H](O)c1ccccc1
- mutagenic call (Test System: AMES SALMONELLA TYPHIMURIUM, Strain/Indicator: TA100, Metabolic Activation: RAT, LIVER, S-9, PCB, Method: PREINCUBATION): active; positive

SMILES: Clc1ccccc1Cl
- mutagenic call (End Point: IN VITRO CHROMOSOMAL ABERRATIONS, Test System: CHO-LB CELLS, Metabolic Activation: NONE): inactive; negative
- mutagenic call (End Point: IN VITRO CHROMOSOMAL ABERRATIONS, Test System: CHO-LB CELLS, Metabolic Activation: RAT, LIVER, S-9, AROCLOR 1254): inactive; negative
- mutagenic call (Test System: AMES SALMONELLA TYPHIMURIUM, Strain/Indicator: TA98, Metabolic Activation: HAMSTER, LIVER, S-9, AROCLOR 1254, Method: PREINCUBATION): inactive; negative
- mutagenic call [1]: inactive; negative
- mutagenic call [2]: inactive; negative
- mutagenic call (Test System: AMES SALMONELLA TYPHIMURIUM, Strain/Indicator: TA98, Metabolic Activation: RAT, LIVER, S-9, AROCLOR 1254, Method: PREINCUBATION): inactive; negative
- mutagenic call (Test System: AMES SALMONELLA TYPHIMURIUM, Strain/Indicator: TA98, Metabolic Activation: RAT, LIVER, S-9, AROCLOR, Method: STANDARD PLATE): inactive; negative
- mutagenic call (Test System: AMES SALMONELLA TYPHIMURIUM, Strain/Indicator: TA100, Metabolic Activation: HAMSTER, LIVER, S-9, AROCLOR 1254, Method: PREINCUBATION): inactive; negative
- mutagenic call (Test System: AMES SALMONELLA TYPHIMURIUM, Strain/Indicator: TA100, Metabolic Activation: NONE, Method: PREINCUBATION): inactive; negative
- mutagenic call [3]: inactive; negative
- mutagenic call (Test System: AMES SALMONELLA TYPHIMURIUM, Strain/Indicator: TA100, Metabolic Activation: RAT, LIVER, S-9, AROCLOR 1254, Method: PREINCUBATION): inactive; negative
- mutagenic call (Test System: AMES SALMONELLA TYPHIMURIUM, Strain/Indicator: TA100, Metabolic Activation: RAT, LIVER, S-9, AROCLOR, Method: STANDARD PLATE): inactive; negative
- mutagenic call (Test System: AMES SALMONELLA TYPHIMURIUM, Strain/Indicator: TA1535, Metabolic Activation: HAMSTER, LIVER, S-9, AROCLOR 1254, Method: PREINCUBATION): inactive; negative
- mutagenic call (Test System: AMES SALMONELLA TYPHIMURIUM, Strain/Indicator: TA1535, Metabolic Activation: NONE, Method: PREINCUBATION): inactive; negative
- mutagenic call (Test System: AMES SALMONELLA TYPHIMURIUM, Strain/Indicator: TA1535, Metabolic Activation: RAT, LIVER, S-9, AROCLOR 1254, Method: PREINCUBATION): inactive; negative
- mutagenic call (Test System: AMES SALMONELLA TYPHIMURIUM, Strain/Indicator: TA1537, Metabolic Activation: HAMSTER, LIVER, S-9, AROCLOR 1254, Method: PREINCUBATION): inactive; negative
- mutagenic call (Test System: AMES SALMONELLA TYPHIMURIUM, Strain/Indicator: TA1537, Metabolic Activation: NONE, Method: PREINCUBATION): inactive; negative
- mutagenic call (Test System: AMES SALMONELLA TYPHIMURIUM, Strain/Indicator: TA1537, Metabolic Activation: RAT, LIVER, S-9, AROCLOR 1254, Method: PREINCUBATION): inactive; negative
- mutagenic call (Test System: AMES SALMONELLA TYPHIMURIUM, Strain/Indicator: UTH8413, Metabolic Activation: NONE, Method: STANDARD PLATE): inactive; negative
- mutagenic call (Test System: AMES SALMONELLA TYPHIMURIUM, Strain/Indicator: UTH8413, Metabolic Activation: RAT, LIVER, S-9, AROCLOR, Method: STANDARD PLATE): inactive; negative
- mutagenic call (Test System: AMES SALMONELLA TYPHIMURIUM, Strain/Indicator: UTH8414, Metabolic Activation: NONE, Method: STANDARD PLATE): inactive; negative
- mutagenic call (Test System: AMES SALMONELLA TYPHIMURIUM, Strain/Indicator: UTH8414, Metabolic Activation: RAT, LIVER, S-9, AROCLOR, Method: STANDARD PLATE): inactive; negative

SMILES: Cc1cccc2c3c(c4cc5ccccc5cc4c12)O3
- mutagenic call [1]: active; positive

SMILES: COC1(O[C@H]2CC[C@H]3[C@@H]4CC[C@H]5C[C@@H]6S[C@@H]6C[C@]5(C)[C@H]4CC[C@]23C)CCCC1
- mutagenic call [2]: inactive; negative
- mutagenic call [4]: inactive; negative
- mutagenic call [3]: inactive; negative
- mutagenic call [5]: inactive; negative
- mutagenic call (Test System: AMES SALMONELLA TYPHIMURIUM, Strain/Indicator: TA1537, Metabolic Activation: S-9, Method: STANDARD PLATE): inactive; negative
- mutagenic call (Test System: E. COLI, Strain/Indicator: WP2 (HCR), Metabolic Activation: NONE, Method: STANDARD PLATE): inactive; negative
- mutagenic call (Test System: E. COLI, Strain/Indicator: WP2 (HCR), Metabolic Activation: S-9, Method: STANDARD PLATE): inactive; negative

SMILES: O=P([O-])([O-])OC(CCO)CCO.O=P([O-])([O-])OCC(O)CO.[Mn+2].[Mn+2]
- mutagenic call [2]: inactive; negative
- mutagenic call (Test System: AMES SALMONELLA TYPHIMURIUM, Strain/Indicator: TA98, Metabolic Activation: RAT, LIVER, S-9, AROCLOR 1254, Method: STANDARD PLATE): inactive; negative
- mutagenic call [3]: inactive; negative
- mutagenic call (Test System: AMES SALMONELLA TYPHIMURIUM, Strain/Indicator: TA100, Metabolic Activation: RAT, LIVER, S-9, AROCLOR 1254, Method: STANDARD PLATE): inactive; negative
- mutagenic call (Test System: AMES SALMONELLA TYPHIMURIUM, Strain/Indicator: TA1535, Metabolic Activation: NONE, Method: STANDARD PLATE): inactive; negative
- mutagenic call (Test System: AMES SALMONELLA TYPHIMURIUM, Strain/Indicator: TA1535, Metabolic Activation: RAT, LIVER, S-9, AROCLOR 1254, Method: STANDARD PLATE): inactive; negative
- mutagenic call (Test System: AMES SALMONELLA TYPHIMURIUM, Strain/Indicator: TA1537, Metabolic Activation: NONE, Method: STANDARD PLATE): inactive; negative
- mutagenic call (Test System: AMES SALMONELLA TYPHIMURIUM, Strain/Indicator: TA1537, Metabolic Activation: RAT, LIVER, S-9, AROCLOR 1254, Method: STANDARD PLATE): inactive; negative
- mutagenic call (Test System: AMES SALMONELLA TYPHIMURIUM, Strain/Indicator: TA1538, Metabolic Activation: NONE, Method: STANDARD PLATE): inactive; negative
- mutagenic call (Test System: AMES SALMONELLA TYPHIMURIUM, Strain/Indicator: TA1538, Metabolic Activation: RAT, LIVER, S-9, AROCLOR 1254, Method: STANDARD PLATE): inactive; negative
- mutagenic call (Test System: E. COLI, Strain/Indicator: WP2, Metabolic Activation: NONE, Method: STANDARD PLATE): inactive; negative
- mutagenic call (Test System: E. COLI, Strain/Indicator: WP2, Metabolic Activation: RAT, LIVER, S-9, AROCLOR 1254, Method: STANDARD PLATE): inactive; negative

SMILES: C[C@H]1CC[C@@H]2[C@@H](C)[C@H]3C(C[C@H]4[C@@H]5CC=C6C[C@@H](O[C@@H]7O[C@H](CO)[C@H](O)[C@H](O[C@@H]8O[C@H](CO)[C@@H](O)[C@H](O)[C@H]8O)[C@H]7O[C@@H]7O[C@@H](C)[C@H](O)[C@@H](O)[C@H]7O)CC[C@]6(C)C5CC[C@]34C)N2C1 (some centres not stated)
- mutagenic call [2]: inactive; negative
- mutagenic call [4]: inactive; negative
- mutagenic call [3]: inactive; negative
- mutagenic call [5]: inactive; negative
